According to PMC8269059, “Glycyrrhizin Derivatives Suppress Cancer Chemoresistance by Inhibiting Progesterone Receptor Membrane Component 1” (Cancers, 2021):
Entries after “also recorded” stand apart in the source; their conditions may differ.

Assays:
apo-PGRMC1 = target: T1, apo-PGRMC1 (Homo sapiens, UniProt O00264); test: ITC binding to apo-PGRMC1; settings: apo-monomer form
T1 construct: human PGRMC1 intracellular domain residues 43-195; GST (N, cleaved yes); made in house; host or cells: E. coli BL21 (DE3)
T1 sequence (O00264 43-195): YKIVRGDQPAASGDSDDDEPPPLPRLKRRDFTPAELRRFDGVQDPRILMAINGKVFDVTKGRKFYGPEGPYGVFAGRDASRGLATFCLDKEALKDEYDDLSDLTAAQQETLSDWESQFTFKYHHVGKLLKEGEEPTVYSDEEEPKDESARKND
Excerpt: (§1) Bacterial expression vectors pGEX-PGRMC1 (human PGRMC1 intracellular domain residues 43-195) and mammalian FLAG-tagged expression vector pCMV-FLAG-PGRMC1 (full-length) were constructed as described previously. Expression vectors for PGRMC1 point mutants were generated by site-directed mutagenesis with PCR. For construction of HMGB1 expression vector, human HMGB1 full-length cDNA was cloned from cDNA library of HCT116 cells using the primers (Forward: 5′-[…]-3′, Reverse: 5′-[…]-[…]-3′), digested with Bam HI and Sal I, and then ligated into pGEX6P1.
Expression vectors (pGEX-PGRMC1 (residues 43-195) or pGEX-HMGB1) were transformed into BL21 (DE3) competent E. coli cells, and the cells incubated in LB medium with ampicillin at 37 °C until the OD600 reached 0.8. Protein expression was induced by adding 1 mM isopropyl-β-thiogalactopyranoside (IPTG) and incubating at 37 °C for 4 h. […]
ITC experiments were performed at 298 K with ITC-Buffer (50 mM phosphate [pH 7.0]) using a MicroCal iTC200 (Malvern Panalytical, Malvern, UK). […] Binding isotherms were analyzed using SEDPHAT [35]. The binding of AG205 to apo- or heme-PGRMC1 (100 μM) was analyzed using a concentration of 3 mM containing 1% DMSO. […]

PGRMC1-PGRMC1 binding = target: T2, PGRMC1-PGRMC1 binding (Homo sapiens, UniProt O00264); test: Co-immunoprecipitation of endogenous PGRMC1 with FLAG-PGRMC1 in HCT116 cells; format: cell-based; settings: HCT116, co-IP of endogenous PGRMC1 with FLAG-PGRMC1, GL 12 hr
T2 construct: mammalian FLAG-tagged expression vector pCMV-FLAG-PGRMC1 (full-length); Endogenous PGRMC1 (25 kDa) was co-immunoprecipitated; expressed in transfected cells; host or cells: HCT116
T2 sequence (O00264 whole entry): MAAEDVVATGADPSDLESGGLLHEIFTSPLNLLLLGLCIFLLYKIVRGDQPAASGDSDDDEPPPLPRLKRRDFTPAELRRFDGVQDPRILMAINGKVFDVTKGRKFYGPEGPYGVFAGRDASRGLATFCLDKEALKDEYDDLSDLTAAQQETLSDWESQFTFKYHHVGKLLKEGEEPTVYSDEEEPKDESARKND
T2 sequence (O00264 whole entry): as above
Procedure: An expression vector of pCMV-3xFLAG-PGRMC1 or an empty vector was transfected into HCT116 cells or HuH7 cells using the transfection reagent Lipofectamine 2000 (Invitrogen). The cells were incubated overnight with either GL or GlucoGL. Cells were then lysed with NP40 lysis buffer (20 mM Tris-HCl [pH 7.5], 150 mM NaCl, and 1% NP40). The lysates were incubated with 10 μL of equilibrated anti-FLAG (M2) agarose for 60 min at room temperature. Bound proteins were washed three times and subjected to SDS-PAGE and visualized through western blotting using antibodies against FLAG, EGFR, and LDLR. For analysis of the endogenous PGRMC1-binding with FLAG-PGRMC1, HCT116 cells (1 × 10^7 cells) were treated with vehicle or 250 μM SA and/or 10 μM hemin for 48 h, and the cell lysates were co-immunoprecipitated with anti-FLAG (M2) agarose. Bound proteins (endogenous PGRMC1 and FLAG-tagged PGRMC1) were visualized through western blotting using antibody against PGRMC1.

PGRMC1 G111W = target: T3, PGRMC1 G111W (Homo sapiens, UniProt O00264, G111W); test: ITC binding of GL to PGRMC1 mutant G111W
T3 construct: human PGRMC1 intracellular domain residues 43-195; GST (N, cleaved yes); made in house; host or cells: E. coli BL21 (DE3)
T3 sequence (O00264 43-195 G111W): as the sequence (O00264 43-195) above, with G69W counted along it
Excerpt: as §1
(§2) ITC experiments were performed at 298 K with ITC-Buffer (50 mM phosphate [pH 7.0]) using a MicroCal iTC200 (Malvern Panalytical, Malvern, UK). GL derivatives were dissolved in […] and titrated into 100 μM apo-PGRMC1, heme-bound-PGRMC1, or HMGB1 protein. Titration was performed by injecting 2 µL of the syringe solution at intervals of 120 s. Binding isotherms were analyzed using SEDPHAT [35]. The binding of AG205 to apo- or heme-PGRMC1 (100 μM) was analyzed using a concentration of 3 mM containing 1% DMSO. The binding affinities of GL derivatives for HMGB1 (80 µM) were analyzed using a concentration of 3 mM.

PGRMC1 F128W = target: T4, PGRMC1 F128W (Homo sapiens, UniProt O00264, F128W); test: ITC binding of GL to PGRMC1 mutant F128W
T4 construct: human PGRMC1 intracellular domain residues 43-195; GST (N, cleaved yes); made in house; host or cells: E. coli BL21 (DE3)
T4 sequence (O00264 43-195 F128W): as the sequence (O00264 43-195) above, with F86W counted along it
Excerpt: as §1, §2

PGRMC1 K132V = target: T5, PGRMC1 K132V (Homo sapiens, UniProt O00264, K132V); test: ITC binding of GL to PGRMC1 mutant K132V
T5 construct: human PGRMC1 intracellular domain residues 43-195; GST (N, cleaved yes); made in house; host or cells: E. coli BL21 (DE3)
T5 sequence (O00264 43-195 K132V): as the sequence (O00264 43-195) above, with K90V counted along it
Excerpt: as §1, §2

PGRMC1 Q149F = target: T6, PGRMC1 Q149F (Homo sapiens, UniProt O00264, Q149F); test: ITC binding of GL to PGRMC1 mutant Q149F
T6 construct: human PGRMC1 intracellular domain residues 43-195; GST (N, cleaved yes); made in house; host or cells: E. coli BL21 (DE3)
T6 sequence (O00264 43-195 Q149F): as the sequence (O00264 43-195) above, with Q107F counted along it
Excerpt: as §1, §2

**Q.** What does the source list for `CC1(C)[C@@H](O[C@H]2O[C@H](C(=O)O)[C@@H](O)[C@H](O)[C@H]2O[C@@H]2O[C@H](C(=O)O)[C@@H](O)[C@H](O)[C@H]2O)CC[C@]2(C)[C@H]3C(=O)C=C4[C@@H]5C[C@@](C)(C(=O)O)CC[C@]5(C)CC[C@@]4(C)[C@]3(C)CC[C@@H]12` [Glycyrrhizin (GL), Glycyrrhizin]?
**A.** Binding to apo-PGRMC1 (apo-PGRMC1): No Binding; also recorded: not to the apo-monomer form; PGRMC1-PGRMC1 binding (PGRMC1-PGRMC1 binding): did not affect; Kd (PGRMC1 G111W): 108 µM; TΔS (PGRMC1 G111W): 4.39 K･kcal/mol; ΔH (PGRMC1 G111W): -1.86 kcal/mol; Kd (PGRMC1 F128W): 137 µM; TΔS (PGRMC1 F128W): 0.38 K･kcal/mol; ΔG (PGRMC1 F128W): -5.27 kcal/mol; ΔH (PGRMC1 F128W): -4.90 kcal/mol; Kd (PGRMC1 K132V): 84.6 µM; TΔS (PGRMC1 K132V): 4.55 K･kcal/mol; ΔG (PGRMC1 K132V): -5.56 kcal/mol; ΔH (PGRMC1 K132V): -1.01 kcal/mol; Kd (PGRMC1 Q149F): 403 µM; TΔS (PGRMC1 Q149F): −10.62 K･kcal/mol; ΔH (PGRMC1 Q149F): -14.37 kcal/mol
